For 14 compounds, TGI results are on record in PubChem BioAssay (NCI).

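1) Cells in 96-well plates. 2) Compound, 48 h, 5 concentrations. 3) Linear interpolation between surrounding doses. 4) Unreached endpoint = highest concentration. TGI: total growth inhibition.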 Where a SMILES comes first, the peptide text is derived from it. The star is where a group is joined. Cbz = O=C(OCc1ccccc1)*

What all share (assay): inhibition of tumour cell growth, NCI panel, 48 h
The subject of experiment [1] is MDA-MB-435.
Experiment [2] deals with NCI-H23 lung.
Experiment [3] relates to TK-10 renal.
Experiment [4] relates to SW-620 colon.
Experiment [5] has as its system UACC-62 melanoma.
For experiment [6], the system named is OVCAR-5 ovarian.
Experiment [7] concerns SF-539 CNS.
The subject of experiment [8] is MALME-3M melanoma.
In experiment [9] the test system is SR leukemia.
For experiment [10], the system named is NCI-H522 lung.
Experiment [11] concerns SF-295 CNS.
In experiment [12] the test system is SN12C renal.
In experiment [13] the test system is OVCAR-3 ovarian.
The test system of experiment [14] is SK-OV-3 ovarian.
The test system of experiment [15] is HT29 colon.
The test system of experiment [16] is A549 NSCLC.
Experiment [17] has as its system HCT-116 colon.
Experiment [18] has as its system EKVX NSCLC.
Experiment [19] deals with UACC-257 melanoma.

As for `CC(CO)(CO)N1C(=O)C2C3C=CC(C3)C2C1=O` (stereo unspecified), the TGI in [1], in experiment [2], in experiment [3], in experiment [4], in experiment [5] and in experiment [6] was > 100 µM each time. Moreover, the TGI in [7], in [8], in [9], in experiment [10], in [11] and in [12] was > 100 µM each time. For the same compound, the TGI in experiment [13], in experiment [14], in experiment [15], in experiment [16], in experiment [17] and in experiment [18] was > 100 µM throughout. The TGI in experiment [19] was > 100 µM.
Regarding `O=Cc1[nH]c(=O)[nH]c(=O)c1C(=O)O`, the TGI in [1], in experiment [2], in experiment [3], in experiment [4], in [5] and in [6] was > 100 µM in each case. The TGI in [7], in experiment [8], in experiment [9], in experiment [10], in experiment [11] and in [12] was > 100 µM in each case. Moreover, the TGI in [13], in experiment [14], in experiment [15], in [16], in experiment [17] and in experiment [18] was > 100 µM throughout. Besides, the TGI in experiment [19] was > 100 µM.
On to `C/C=C(/C)C(=O)O[C@@H]1CCN2CC[C@H](COC(=O)/C(=C/C)CO)C12` (stereo partly specified), for which the TGI in experiment [1], in experiment [2], in experiment [3], in experiment [4], in experiment [5] and in experiment [6] was > 100 µM throughout. In addition, the TGI is > 100 µM in [7]; 84.2 µM in experiment [8]; > 100 µM in experiment [9]; > 100 µM in experiment [10]; > 100 µM in [11]; > 100 µM in [12]. Besides, the TGI in [13] was > 100 µM; in [14], > 100 µM; in [15], > 31.6 µM; in [16] it was > 100 µM; in experiment [17] it was > 100 µM; in experiment [18], > 100 µM. Moreover, in experiment [19], the TGI was found to be 99.7 µM.
`CCOC(=O)C12OC(CCC1=O)C(C(=O)OC)=C2C(=O)OC` (stereo unspecified): the TGI in experiment [1], in experiment [2], in experiment [3], in experiment [4], in experiment [5] and in [6] was > 10 µM throughout. Also, the TGI in experiment [7], in [8], in experiment [9], in [10], in [11] and in experiment [12] was > 10 µM in each case. The TGI in experiment [13], in experiment [14], in [15], in [16], in experiment [17] and in experiment [18] was > 10 µM throughout. In addition, the TGI in experiment [19] was > 10 µM.
For `CN1CCN(C(=S)N2CCN(C)CC2)CC1`, the TGI in experiment [1], in experiment [2], in [3], in [4], in [5] and in experiment [6] was > 100 µM in each case. Also, the TGI was 45.3 µM in experiment [7]; > 100 µM in [8]; 0.983 µM in experiment [9]; > 45.6 µM in experiment [10]; > 100 µM in experiment [11]; > 100 µM in [12]. Moreover, the TGI in [13] was > 100 µM; in [14], > 100 µM; in experiment [15], 5.86 µM; in [16] it was > 100 µM; in experiment [17], > 100 µM; in [18] it was > 100 µM. The TGI in [19] was > 100 µM.
Turning to `CC(=O)c1c(C)n([O-])c2cc(Cl)c(Cl)cc2[n+]1=O`, the TGI is 69.7 µM in [1]; > 100 µM in [2]; 71.3 µM in [3]; > 100 µM in [4]; 50 µM in [5]; > 100 µM in experiment [6]. In addition, the TGI in experiment [7] was 72.5 µM; in [8], 26.4 µM; in experiment [9], 62.2 µM; in experiment [10] it was 27.9 µM; in experiment [11], > 100 µM; in [12] it was 86.2 µM. The TGI in experiment [13] is 88.5 µM; in experiment [14], 54.4 µM; in experiment [15] it was 90.9 µM; in experiment [16] it was 56.2 µM; in experiment [17], > 100 µM; in experiment [18], > 100 µM. The compound further registered a TGI in [19] of 57.4 µM.
In the case of `NC(=O)C(C(N)=O)=C(O)C(=O)/C=C(\O)c1ccccc1`, the TGI in experiment [1], in [2], in experiment [3], in [4], in [5] and in experiment [6] was > 100 µM throughout. Further, the TGI was > 100 µM in experiment [7]; > 100 µM in experiment [8]; 13.9 µM in experiment [9]; 36.2 µM in experiment [10]; > 100 µM in experiment [11]; > 100 µM in experiment [12]. For the same compound, the TGI in experiment [13], in [14], in experiment [15], in experiment [16], in experiment [17] and in experiment [18] was > 100 µM throughout. Moreover, in [19], the TGI is > 100 µM.
Turning to `CC(C)=CC[C@]12CCN[C@H]1N(S(=O)(=O)c1ccccc1)c1ccccc12`, the TGI is 32.5 µM in experiment [1]; > 100 µM in experiment [2]; > 100 µM in [3]; 36.9 µM in experiment [4]; 29.2 µM in experiment [5]; > 100 µM in [6]. Further, the TGI in [7] worked out at 36.9 µM; in [8] it was 32.7 µM; in experiment [9] it was 51 µM; in experiment [10], 30.1 µM; in experiment [11] it was 34.5 µM; in experiment [12] it was 26.4 µM. The TGI in experiment [13] is 30.6 µM; in [14], 38.9 µM; in [15] it was 39 µM; in [16], 59.1 µM; in experiment [17], 27.9 µM; in experiment [18], 21.3 µM. This compound displayed a TGI in experiment [19] of 34.8 µM.
Take `CN1C2CCC1CC(=CCOC(c1ccc(F)cc1)c1ccc(F)cc1)C2`: the TGI in experiment [1] is 25.7 µM; in experiment [2], 32 µM; in experiment [3] it was 28.5 µM; in [4], > 100 µM; in experiment [5], 29.5 µM; in experiment [6] it was 36 µM. The TGI in experiment [7] is 31.9 µM; in [8], 27.2 µM; in experiment [9], 37.3 µM; in experiment [10], 24.7 µM; in [11], 30.9 µM; in [12], 33.5 µM. Also, the TGI in experiment [13] was determined as 31.3 µM; in experiment [14], 31.3 µM; in experiment [15], 19.9 µM; in [16] it was 32.4 µM; in experiment [17], 24.6 µM; in experiment [18], 40.8 µM. The compound further registered a TGI in [19] of 31.7 µM.
Consider `CCCCCCc1cc2cc(C(=O)Nc3ccccc3)c(=N)oc2cc1O`, for which the TGI is 14.1 µM in [1]; 10.6 µM in experiment [2]; > 100 µM in [3]; > 100 µM in [4]; 40.1 µM in experiment [5]; > 100 µM in experiment [6]. In addition, the TGI in [7] was > 48.6 µM; in experiment [8], 5.6 µM; in experiment [9] it was > 26.3 µM; in experiment [10], 6.02 µM; in experiment [11], > 100 µM; in experiment [12], 6.97 µM. Moreover, the TGI was 5.1 µM in experiment [13]; > 26.5 µM in experiment [14]; > 32.1 µM in experiment [15]; > 37.5 µM in experiment [16]; 6.59 µM in experiment [17]; > 100 µM in experiment [18]. In experiment [19], the TGI is > 100 µM.
Consider `O=C(O)CCC(NC(=O)OCc1ccccc1)C(=O)NC(Cc1cnc[nH]1)C(=O)O` (stereo not drawn) (Cbz-Glu-His-OH; configuration not given here), for which the TGI in [1], in [2], in experiment [3], in [4], in experiment [5] and in experiment [6] was > 100 µM each time. Further, the TGI in experiment [7], in [8], in [9], in experiment [10], in experiment [11] and in [12] was > 100 µM in each case. For the same compound, the TGI in [13], in experiment [14], in [15], in experiment [16], in experiment [17] and in [18] was > 100 µM in each case. In addition, the TGI in experiment [19] was > 100 µM.
For `COc1cc(C2c3cc4c(cc3OC3(OC)COC(=O)C23)OCO4)cc(OC)c1OC(C)=O` (stereo unspecified), the TGI in experiment [1] is 2.23 µM; in [2], > 100 µM; in experiment [3], > 100 µM; in [4], > 100 µM; in [5], > 100 µM; in experiment [6], > 41.4 µM. The TGI in experiment [7] was 2.25 µM; in [8], > 100 µM; in [9] it was > 31.6 µM; in experiment [10] it was 2.43 µM; in experiment [11], 5.38 µM; in experiment [12] it was > 100 µM. For the same compound, the TGI was > 36.2 µM in experiment [13]; > 100 µM in [14]; > 37.5 µM in experiment [15]; > 100 µM in [16]; 38.7 µM in experiment [17]; > 100 µM in experiment [18]. In [19], the TGI was > 100 µM.
Regarding `Cn1cc(NC(=O)Nc2cc(C(=O)Nc3cc(C(=O)Nc4ccc(S(=O)(=O)O)c5cc(S(=O)(=O)O)ccc45)n(C)c3)n(C)c2)cc1C(=O)Nc1cc(C(=O)Nc2ccc(S(=O)(=O)O)c3cc(S(=O)(=O)O)ccc23)n(C)c1`, the TGI in experiment [1], in experiment [2], in experiment [3], in experiment [4], in experiment [5] and in experiment [6] was > 100 µM each time. Also, the TGI in [7], in experiment [8], in [9], in experiment [10], in experiment [11] and in [12] was > 100 µM throughout. For the same compound, the TGI in experiment [13], in experiment [14], in experiment [15], in [16], in experiment [17] and in [18] was > 100 µM throughout. Also, the TGI in experiment [19] was > 100 µM.
Consider `CCOC1OC(=O)c2cc3ccc4c(c3c(-c3ccc5c(c3)OCO5)c21)OCO4` (stereo unspecified), for which the TGI in experiment [1] was > 28 µM; in experiment [2], > 55.3 µM; in experiment [3] it was > 77.9 µM; in experiment [4], > 100 µM; in [5], > 59.2 µM; in experiment [6], > 100 µM. In addition, the TGI in experiment [7] was 20.4 µM; in [8], > 100 µM; in experiment [9], 5.43 µM; in experiment [10], 6.9 µM; in experiment [11], 8.14 µM; in experiment [12], > 100 µM. Further, the TGI in experiment [13] was 3.77 µM; in experiment [14], > 29.9 µM; in experiment [15] it was > 100 µM; in [16], > 100 µM; in experiment [17], 18.6 µM; in experiment [18] it was > 100 µM. Besides, the TGI in experiment [19] is > 84.5 µM.
